In brackets after ≈: the same amount, converted by molar mass.

Holding throughout (format): functional, cell-based
Holding throughout (conditions): Homo sapiens

Assay [1] has as its system A549. Briefly: Inhibitory concentration against A549 (lung cancer) cell line.
Assay [2] deals with DLD-1. Put plainly: Inhibitory concentration against DLD-1 (colon cancer) cell line.
Assay [3] concerns HeLa. Briefly: Inhibitory concentration against HeLa (cervical cancer) cell line.
For assay [4], the system named is K562. Put plainly: Inhibitory concentration against K562 (leukemia) cell line.

Take `COc1cc2c3c(c4ccc(O)c(OC)c4c2cc1OC)[C@H](O)[C@@H]1CCCN1C3`: the IC50 (commonly the concentration at which inhibition is half-maximal) in assay [1] worked out at 0.5 ng/mL (≈ 1.26 nM); in assay [2], 0.8 ng/mL (≈ 2.02 nM); in assay [3] it was 0.1 ng/mL (≈ 0.253 nM); in assay [4] it was 0.5 ng/mL (≈ 1.26 nM).
In the case of `COc1cc2c3c(c4ccc(O)cc4c2cc1OC)[C@H](O)[C@@H]1CCCN1C3` [TYLOPHORIDICINE E], the half-maximal inhibitory concentration (IC50) in assay [1] amounted to 0.4 ng/mL (≈ 1.09 nM); in assay [2], 0.5 ng/mL (≈ 1.37 nM); in assay [3], 0.8 ng/mL (≈ 2.19 nM); in assay [4] it was 0.4 ng/mL (≈ 1.09 nM).

Source of the values: ChEMBL document CHEMBL1134492, “Phenanthroindolizidine alkaloids as cytotoxic substances in a Danaid butterfly, Ideopsis similis, against human cancer cells” (J Med Chem, 2001).
